This is an account of results in US20220125765A1, “PHARMACEUTICAL COMBINATIONS COMPRISING MEBENDAZOLE AND A STRONG OR MODERATE CYP1A2 INHIBITOR” (ZEPHAPHARM LTD, priority 2019, published 2022).

One may read the hepatocyte CLint as the rate of metabolic loss divided by the concentration. Read a low hepatocyte CLint as slow turnover. What is called microsomal CLint is the capacity of the preparation to metabolise the compound, expressed as a volume cleared per time.

A short description of data set [1]: Stability in human cryopreserved hepatocytes without and with cimetidine or thiabendazole (Example 6). The conditions noted are these: human, substrate 1 μM; for half-life at 1 μM: t½.
Protocol: Mebendazole (1 μM) was incubated with cryopreserved human hepatocytes for 60 min in the absence and presence of cimetidine at 30, 100 and 300 μM) and thiabendazole at 10, 30 and 100 μM and samples taken at the required time points. The amount of test compound remaining at each time point was analysed by LC-MS/MS. Appropriate control compounds were also incubated along with ethoxycoumarin, which was incubated in the absence and presence of cimetidine and thiabendazole.
The final incubation volume was 500 μL. Two control compounds were included, alongside appropriate vehicle control. A positive control compound, ethoxycoumarin, for CYP1A2 was included. The positive control compound was incubated without inhibitor and in the presence of each inhibitor. The reactions were stopped by transferring 50 μL of incubate to 100 μL acetonitrile containing internal standard at the appropriate time points (0, 5, 10, 20, 40 and 60 min). The termination plates were centrifuged at 2500 rpm at 4° C. for 30 min to precipitate the protein.
Data set [2] is described as follows: Stability in human cryopreserved hepatocytes without and with cimetidine or furafylline (Example 5). In kind it is in vitro ADME. Conditions: human, substrate 1 μM, read-out: t1/2. On the procedure:
The final incubation volume was 500 μL. Two control compounds were included with each species, alongside appropriate vehicle control.
The samples were analysed for mebendazole or ethoxycoumarin using LC-MS/MS.
The final incubation volume was 500 μL.
A positive control compound, ethoxycoumarin, for CYP1A2 was included. […] The samples were analysed for mebendazole or ethoxycoumarin using LC-MS/MS.

Data set [3] can be described thus: Stability in human liver microsomes without and with cimetidine or furafylline (Example 4). It counts as in vitro ADME. The conditions noted are these: substrate 1 μM; for half-life at 1 μM / microsomal CLint at 1 μM: human, liver microsomes. On the procedure:
A minus cofactor control incubation was included for each compound tested where 0.1 M phosphate buffer pH 7.4 was added instead of NADPH (minus NADPH). […] The samples were analysed for mebendazole or phenacetin using LC-MS/MS.
A minus cofactor control incubation was included for each compound tested where 0.1 M phosphate buffer pH 7.4 was added instead of cofactor (minus NADPH). […] The samples were analysed for mebendazole or phenacetin using LC-MS/MS.
For orientation: Liver microsomes are vesicles of endoplasmic reticulum, rich in cytochrome P450 enzymes.

Setting [4] is: cryopreserved hepatocytes (suspension), no inhibitor.
Where [5] appears, read: cryopreserved hepatocytes, with cimetidine 30 μM, cimetidine 30 μM.
The mark [6] stands for this setting: cryopreserved hepatocytes, with cimetidine 100 μM, cimetidine 100 μM.
Setting [7] is: cryopreserved hepatocytes, with cimetidine 300 μM, cimetidine 300 μM.
[8] abbreviates: pH 7.4, with cimetidine 30 μM, plus 30 μM cimetidine.
Setting [9] is: pH 7.4, with cimetidine 100 μM, plus 100 μM cimetidine.
[10] abbreviates: pH 7.4, with cimetidine 300 μM, plus 300 μM cimetidine.

`CCOc1ccc2ccc(=O)oc2c1`: the hepatocyte CLint at 1 µM came to 105 µL/min/1e6 cells in data set [1] (setting [4]); 99.9 µL/min/1e6 cells in data set [1] (cryopreserved hepatocytes (suspension), with cimetidine 30 µM, cimetidine 30 μM); 88.8 µL/min/1e6 cells in data set [1] (cryopreserved hepatocytes (suspension), with cimetidine 100 µM, cimetidine 100 μM); 59.8 µL/min/1e6 cells in data set [1] (cryopreserved hepatocytes (suspension), with cimetidine 300 µM, cimetidine 300 μM); 8.65 µL/min/1e6 cells in data set [1] (cryopreserved hepatocytes (suspension), with thiabendazole 10 µM, thiabendazole 10 μM); 5.35 µL/min/1e6 cells in data set [1] (cryopreserved hepatocytes (suspension), with thiabendazole 30 µM, thiabendazole 30 μM). Further, the hepatocyte CLint at 1 µM in data set [1] (cryopreserved hepatocytes (suspension), with thiabendazole 100 µM, thiabendazole 100 μM) turned out to be 4.05 µL/min/1e6 cells. Further, the half-life at 1 μM stood at 13.2 min in data set [1] (setting [4]); 13.9 min in data set [1] (setting [5]); 15.6 min in data set [1] (setting [6]); 23.2 min in data set [1] (setting [7]); 160 min in data set [1] (cryopreserved hepatocytes, with thiabendazole 10 μM, thiabendazole 10 μM); 259 min in data set [1] (cryopreserved hepatocytes, with thiabendazole 30 μM, thiabendazole 30 μM). In data set [1] (cryopreserved hepatocytes, with thiabendazole 100 μM, thiabendazole 100 μM), this compound returned a half-life at 1 μM of 343 min.
`CCOc1ccc(NC(C)=O)cc1` [Phenacetin]: the half-life at 1 μM in data set [2] (setting [4]) came to 12.9 min; in data set [2] (setting [5]), 13.4 min; in data set [2] (setting [6]), 15.7 min; in data set [2] (setting [7]), 18.8 min; in data set [2] (cryopreserved hepatocytes, with furafylline 3 μM, furafylline 3 μM), 59.6 min; in data set [2] (cryopreserved hepatocytes, with furafylline 10 μM, furafylline 10 μM), 89.3 min. Also, the half-life at 1 μM in data set [2] (cryopreserved hepatocytes, with furafylline 30 μM, furafylline 30 μM) was 110 min; in data set [3] (setting [8]), 65.3 min; in data set [3] (setting [9]), 78.9 min; in data set [3] (setting [10]), 99.6 min; in data set [3] (pH 7.4, no inhibitor) it was 61.9 min. Moreover, the microsomal CLint at 1 μM was 21.2 µL/min/mg in data set [3] (setting [8]); 17.6 µL/min/mg in data set [3] (setting [9]); 13.9 µL/min/mg in data set [3] (setting [10]); 3 to 49 µL/min/mg in data set [3] (pH 7.4, with furafylline 3 μM, plus 3 μM furafylline); 2 to 58 µL/min/mg in data set [3] (pH 7.4, with furafylline 10 μM, plus 10 μM furafylline); 2.71 µL/min/mg in data set [3] (pH 7.4, with furafylline 30 μM, plus 30 μM furafylline). In addition, in data set [3] (pH 7.4, no inhibitor), the microsomal CLint at 1 μM is 22.4 µL/min/mg. The CLint is 3.49 μL/min/mg protein in data set [3] (plus 3 μM furafylline) and 2.58 μL/min/mg protein in data set [3] (plus 10 μM furafylline).
For `O=c1ccc2ccc(O)cc2o1` [Umbelliferone], the half-life at 1 μM in data set [2] (setting [4]) was 7.95 min. In data set [1] (setting [4]), this compound yielded an intrinsic clearance (hepatocyte CLint) at 1 µM of 229 µL/min/1e6 cells and a half-life at 1 μM of 6.05 min.
